Experimental findings from patent publication US20190269752A1, “Methods for the Prevention or Treatment of Epilepsy” (Duke University, priority 2018, published 2019) are described below.

Series [1] relates to epileptic animals (KA-SE). As to the kind of experiment: Spontaneous recurrent seizures (video-EEG) after kainic acid-induced status epilepticus (KA-SE model of TLE). It counts as in vivo, mice. The settings on record: 20 mg/kg IP twice daily for two weeks. The source says:
(§1) Determining whether pY816 may be beneficial in epileptic animals required modification of our study of the kainic acid (KA)-status epilepticus (SE) model. To more closely mimic the clinical scenario in which patients seek medical attention for established TLE, we induced KA-SE and then conducted video-EEG recordings to detect spontaneous recurrent seizures during baseline periods of two to four weeks until they developed TLE prior to treating with pY816 peptide. In contrast to just three days of treatment with pY816 deployed in previous studies, we sought a more prolonged treatment with pY816 for the current experiments, namely two weeks. The intravenous route of administration used for three days in the prior studies was not feasible for two weeks, leading us to ask whether treatment via intraperitoneal route could inhibit activation of PLCγ1. We used the phosphorylation of residue Y783 of PLCγ1 detected on western blot of brain lysates as a surrogate measure of PLCγ1 activation.
Having verified that intraperitoneal administration of pY816 inhibited PLCγ1 activation, we then asked whether treatment with pY816 initiated after onset of epilepsy and continued for two weeks would reduce the severity of epilepsy or even induce a remission. Towards that end, we induced KA-SE but then followed the animals for several weeks until they developed TLE as assessed by detection of SRS in continuous video-EEG recordings. We quantified the number of SRS in each animal by blinded review of video-EEG recordings during three distinct two week epochs (FIG. 8): a) baseline; b) treatment with pY816 (n=9) or Scr control (n=6), 20 mg/kg IP twice daily for two weeks (on Tx); c) following termination of treatment (Post Tx). As noted in FIG. 8, following induction of status epilepticus induced by infusion of kainic acid into amygdala (Gu et al 2015) animals underwent continuous video-EEG recording to detect spontaneous recurrent seizures. Following baseline recording of two weeks, animals were treated with either pY816 or Scr control peptide (20 mg/kg) twice daily for two weeks (Day 15-28). Video-EEG recording continued for two weeks following termination of treatment (Post-treatment).
Results are shown in FIG. 9, where each symbol represents the number of seizures experienced by a given animal during Baseline, Treatment (Tx), or Post-treatment (Post Tx) periods. Horizontal bars designate median. Treatment (Tx) consisted of either pY816 or Scr control given 20 mg/kg twice daily for two weeks. Note that seizure detection was performed by analyses of video-EEG recordings by two blinded investigators.
Antiseizure drugs in current clinical use provide symptomatic relief of seizures in many but not all patients, but seizures typically recur upon cessation of the drug. To verify that similar findings occur in our animal model, we tested the effect of an antiseizure drug in current clinical use in our model (carbamazepine). We infused additional animals with KA and assessed the occurrence of SRS with continuous video-EEG monitoring for several weeks. […] Thus, like TLE in humans, continuous treatment with an antiseizure drug suppresses seizures, yet seizures recur upon discontinuation of treatment.

Another series addresses T1, PLCγ1 (Mus musculus, UniProt Q62077).
T1 construct: from tissue; host or cells: hippocampus of adult wild type mice
T1 sequence (Q62077 1-1302): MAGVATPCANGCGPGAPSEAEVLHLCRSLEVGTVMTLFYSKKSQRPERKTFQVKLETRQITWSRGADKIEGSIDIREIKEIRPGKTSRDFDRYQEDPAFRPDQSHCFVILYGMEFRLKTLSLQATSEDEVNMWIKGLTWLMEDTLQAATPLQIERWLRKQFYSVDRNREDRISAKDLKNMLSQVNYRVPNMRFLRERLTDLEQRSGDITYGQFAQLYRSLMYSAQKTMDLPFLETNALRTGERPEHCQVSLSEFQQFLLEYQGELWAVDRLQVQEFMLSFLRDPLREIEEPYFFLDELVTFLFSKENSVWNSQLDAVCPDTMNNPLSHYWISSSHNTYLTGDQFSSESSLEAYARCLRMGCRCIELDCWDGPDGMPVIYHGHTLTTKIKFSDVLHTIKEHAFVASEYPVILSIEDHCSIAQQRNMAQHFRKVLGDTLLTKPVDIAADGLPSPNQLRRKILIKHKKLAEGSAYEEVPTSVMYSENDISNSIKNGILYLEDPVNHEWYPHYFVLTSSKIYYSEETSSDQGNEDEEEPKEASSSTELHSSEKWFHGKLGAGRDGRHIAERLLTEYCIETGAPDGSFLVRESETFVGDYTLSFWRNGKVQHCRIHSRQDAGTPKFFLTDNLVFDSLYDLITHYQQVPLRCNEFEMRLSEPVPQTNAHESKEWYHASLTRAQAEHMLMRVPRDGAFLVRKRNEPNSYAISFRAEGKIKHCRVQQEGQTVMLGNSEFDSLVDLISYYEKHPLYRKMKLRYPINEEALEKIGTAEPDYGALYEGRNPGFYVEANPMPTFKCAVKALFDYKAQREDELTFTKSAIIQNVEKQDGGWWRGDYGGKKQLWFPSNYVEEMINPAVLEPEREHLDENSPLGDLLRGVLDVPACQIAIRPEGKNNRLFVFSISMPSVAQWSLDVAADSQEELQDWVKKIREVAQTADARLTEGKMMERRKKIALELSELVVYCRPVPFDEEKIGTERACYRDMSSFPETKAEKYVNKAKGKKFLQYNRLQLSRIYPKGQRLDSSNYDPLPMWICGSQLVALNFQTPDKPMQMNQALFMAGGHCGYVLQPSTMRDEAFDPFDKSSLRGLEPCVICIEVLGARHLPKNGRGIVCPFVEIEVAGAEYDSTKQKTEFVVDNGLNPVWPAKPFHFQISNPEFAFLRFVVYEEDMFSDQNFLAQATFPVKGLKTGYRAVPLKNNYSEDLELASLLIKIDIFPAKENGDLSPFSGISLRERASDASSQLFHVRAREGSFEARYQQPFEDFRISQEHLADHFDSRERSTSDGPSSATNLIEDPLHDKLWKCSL
The series is described as follows: Inhibition of PLCγ1 activation: western blot of p-PLCγ1 (pY783)/PLCγ1 in hippocampal lysates after intraperitoneal injection. In kind it is in vivo. The settings on record: single dose 20 mg/kg i.p., wild type mice, hippocampal lysates at 3 h; dose dependent (10 or 20 mg/kg).
Description: as §1
Hippocampal lysates (30-40 μg) were subjected to SDS_PAGE and western blotting. The blots were probed with antibodies specifically recognizing p-PLCγ1 (pY783) (a surrogate for activation of PLCγ1) and PLCγ1.
On the technique in general: In western blotting, separated proteins are transferred to a membrane and probed.

SMILES strings stand for the structures. Where a SMILES comes first, the peptide text is derived from it. [ ]: non-standard residue; d: D form. pY = N[C@@H](Cc1ccc(OP(=O)(O)O)cc1)C(=O)O

Consider `CC[C@H](C)[C@H](NC(=O)[C@H](CC(=O)O)NC(=O)[C@H](CC(C)C)NC(=O)[C@H](Cc1ccc(OP(=O)(O)O)cc1)NC(=O)[C@@H](NC(=O)[C@@H]1CCCN1C(=O)[C@H](CO)NC(=O)[C@H](C)NC(=O)[C@H](CCCCN)NC(=O)[C@H](C)NC(=O)[C@H](CC(C)C)NC(=O)[C@H](CC(N)=O)NC(=O)[C@H](CCC(N)=O)NC(=O)[C@H](CC(C)C)NC(=O)[C@H](CCCNC(=N)N)NC(=O)[C@H](CCCNC(=N)N)NC(=O)[C@H](CCCNC(=N)N)NC(=O)[C@H](CCC(N)=O)NC(=O)[C@H](CCCNC(=N)N)NC(=O)[C@H](CCCNC(=N)N)NC(=O)[C@H](CCCCN)NC(=O)[C@H](CCCCN)NC(=O)[C@H](CCCNC(=N)N)NC(=O)CNC(=O)[C@@H](N)Cc1ccc(O)cc1)C(C)C)C(=O)O` [pY816] (H-YGRKKRRQRRRLQNLAKASPV[pY]LDI-OH), for which the “Overt untoward effects during or following treatment” value in series [1] is listed as “No overt untoward effects were detected”. On PLCγ1, the “Inhibition of PLCγ1 activation (reduction of p-PLCγ1 (pY783)/PLCγ1 ratio versus Scr)” value is roughly 60%.
